Results: patent publication US11760978B2, “Cell culture medium for culturing organoid, culture method, and organoid” (KEIO UNIVERSITY, priority 2016, dated 2023)

Tested on: epithelial tumor cells derived from colon tumor
Test: Subculturing (long-term culturing) of epithelial tumor cells derived from colon tumor, Example 4
Assay type: cell-based, human
Details: SB202190 10 μM in medium, oxygen 20%
Experimental: “WIFNRA medium”, “W^AfmIFNRA medium” and “WENRAS” medium were prepared using the same method as in section (2) of Example 4. In addition, recombinant human R-spondin 1 (R&D Systems) was added to commercially available Advanced DMEM/F-12 medium (Thermo Fisher Scientific) to a final concentration of 1 μg/mL followed by the addition noggin (Peprotech) to a final concentration of 100 ng/mL and A83-01 (Tocris) to a final concentration of 500 nM. Moreover, a medium was prepared in which the Wnt3a-afamin complex prepared in (1) above was added to a final concentration 300 ng/mL, IGF1 (Biolegend) was added to a final concentration of 100 ng/mL, FGF2 (Peprotech) was added to a final concentration of 50 ng/mL, and […] (Sigma-Aldrich) was added to a final concentration of 10 μM (and the resulting medium may be referred to as “W^AfmIFNRAS medium”).
Epithelial tumor cells were obtained using the same method as in section (2) of Example 1. Next, the epithelial tumor cells were seeded in a 48-well plate together with 25 μL of Matrigel® (BD Bioscience). The “WIFNRA medium”, “W^MmIFNRA medium”, “WENRAS medium” and “WAfmIFNRAS medium” prepared in (2) above were added in 250 μL aliquots to the wells seeded with epithelial tumor cells followed by culturing at 37° C. and oxygen concentration of 20%. The medium was replaced every two days from the start of culturing. […]

With Oc1ccc(-c2nc(-c3ccncc3)c(-c3ccc(F)cc3)[nH]2)cc1 [SB202190, 4-(4-fluorophenyl)-2-(4-hydroxyphenyl)-5-(4-pyridyl)-1H-imidazole] the “toxicity to epithelial tumor cells” value was “exhibited toxicity”.
